Where two headings read alike, the source gives them in different places.
Columns and labels:
[1] = format: physicochemical; set-up: key to Fibril / Fibril Formation / TEM 2cat / Fibril: 1 = fibrils present; 0 non-fibrillar structures; settings: for Fibril / Fibril Formation / Fibril: TEM; for Fibril / Fibril Formation: 1 mg/mL, uranyl acetate stain, qualitative
[2] = format: physicochemical; settings: for ThT Cat. / ThT-Fluorescence (categorical): ThT-active if fluorescence at least twice the control
Method in brief: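 Fibrils (1 mg/mL solution) were mixed with 50 µM ThT in PBS for 15 min at RT, and fluorescence was read at λex 440/λem 488 nm against a PBS blank, as a triplicate mean ± SD. Zeta potential came from electrophoretic mobility (Smoluchowski) after 1 d aggregation at 1 mg/mL in PBS pH 7.4, diluted into 1 mM KCl.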

[3] = Turbidity, derived count rate of scattered light; format: physicochemical; settings: for Count Rate: derived count rate of scattered light (turbidity); for Log10 Count Rate: turbidity, derived count rate of scattered light, data of Figure 2D
[4] = 1 = fibrils present, 0 = non-fibrillar
[5] = 1 = fibrils present, 0 = non-fibrillar structures
[6] = category: fibrils present or non-fibrillar
[7] = ThT fluorescence category, 1 if Rel. ThT >2
[8] = FigS12 panel A, fibril category by TEM

| Substance | TEM 2cat ([1]; Fig S10 panel D) | Fibril / Fibril Formation [1] | Fibril [1, 4] | Fibril [1, 5] | TEM 2cat [1, 6] | Tht category (> 2 to blank = +) ([2]; Fig S10 panel D) | ThT Cat, ([2]; ThT category, 1 if Rel. ThT >2) | ThT Cat. ([2]; ThT category, 1 if Rel. ThT >2) | ThT Cat. / ThT-Fluorescence (categorical) [2] | Count Rate [3] | Log10 Count Rate [3] | ThT Cat. [2, 7] | TEM 2cat [1, 8] | Fibril ([1]; FigS12 panel B) | Tht category (> 2 to blank = +) ([2]; FigS12 panel A) | ThT Cat, ([2]; FigS12 panel B) |
| --- | --- | --- | --- | --- | --- | --- | --- | --- | --- | --- | --- | --- | --- | --- | --- | --- |
| NMWQKFKFQF | 1 | 1 | 1 | 1 | 1 | 0 (ThT-inactive (N-Fold <2)) | 0 (ThT-inactive (N-Fold <2)) | 0 (ThT-inactive (N-Fold <2)) | 0 (ThT-inactive (N-Fold <2)) | 14045.43333 | 4.148 |  |  |  |  |  |
| KIKIQINMAQ | 1 | 1 | 1 | 1 | 1 | 0 (ThT-inactive (N-Fold <2)) | 0 (ThT-inactive (N-Fold <2)) |  | 0 (ThT-inactive (N-Fold <2)) | 5859 | 3.768 | 0 (ThT-inactive (N-Fold <2)) |  |  |  |  |
| PPFHPPPFHP | 0 | 0 | 0 | 0 |  | 0 (ThT-inactive (N-Fold <2)) | 0 (ThT-inactive (N-Fold <2)) | 0 (ThT-inactive (N-Fold <2)) | 0 (ThT-inactive (N-Fold <2)) | 59.13 | 1.772 |  | 0 | 0 | 0 (ThT-inactive (N-Fold <2)) | 0 (ThT-inactive (N-Fold <2)) |
| HHHHEIEIEIEI | 0 | 0 | 0 | 0 |  | 1 (ThT. Cat is 1, if Rel. ThT >2) | 1 (ThT. Cat is 1, if Rel. ThT >2) |  | 1 (ThT. Cat is 1, if Rel. ThT >2) | 103.3 | 2.014 | 1 (ThT. Cat is 1, if Rel. ThT >2) | 0 | 0 | 1 (ThT. Cat is 1, if Rel. ThT >2) | 1 (ThT. Cat is 1, if Rel. ThT >2) |
| CKWKWQW | 1 | 1 | 1 | 1 | 1 | 0 (ThT-inactive (N-Fold <2)) | 0 (ThT-inactive (N-Fold <2)) |  | 0 (ThT-inactive (N-Fold <2)) | 7511 | 3.876 | 0 (ThT-inactive (N-Fold <2)) |  |  |  |  |
| QCKIKIQI | 1 | 1 | 1 | 1 | 1 | 1 (ThT. Cat is 1, if Rel. ThT >2) | 1 (ThT. Cat is 1, if Rel. ThT >2) | 1 (ThT. Cat is 1, if Rel. ThT >2) | 1 (ThT. Cat is 1, if Rel. ThT >2) | 12426.83333 | 4.094 |  |  |  |  |  |
| KIKIQINMWA | 1 | 1 | 1 | 1 | 1 | 0 (ThT-inactive (N-Fold <2)) | 0 (ThT-inactive (N-Fold <2)) |  | 0 (ThT-inactive (N-Fold <2)) | 1101.2 | 3.042 | 0 (ThT-inactive (N-Fold <2)) |  |  |  |  |
| KYKYQY | 0 | 0 | 0 | 0 |  | 1 (ThT. Cat is 1, if Rel. ThT >2) | 1 (ThT. Cat is 1, if Rel. ThT >2) |  | 1 (ThT. Cat is 1, if Rel. ThT >2) | 31.53 | 1.499 | 1 (ThT. Cat is 1, if Rel. ThT >2) | 0 | 0 | 1 (ThT. Cat is 1, if Rel. ThT >2) | 1 (ThT. Cat is 1, if Rel. ThT >2) |
